Experimental data from ChEMBL document CHEMBL4052736, “Synthesis, antioxidant, antifungal, molecular docking and ADMET studies of some thiazolyl hydrazones” (Bioorg Med Chem Lett, 2017).
≈ marks a conversion by molar mass, not a printed value.

What was measured:
Format in all cases: functional
[1] = system: Candida albicans; test: Antifungal activity against Candida albicans assessed as zone of inhibition at 25 ug/ml measured after 24 hrs by well diffusion method; details: read-out: IZ
[2] = system: Aspergillus flavus; test: Antifungal activity against Aspergillus flavus assessed as zone of inhibition at 25 ug/ml measured after 24 hrs by well diffusion method; details: read-out: IZ
[3] = Antioxidant activity assessed as H2O2 free radical scavenging activity by spectrophotometric analysis
[4] = system: Aspergillus niger; test: Antifungal activity against Aspergillus niger assessed as zone of inhibition at 50 ug/ml measured after 24 hrs by well diffusion method; details: read-out: IZ
[5] = Antioxidant activity assessed as H2O2 free radical scavenging activity at 40 ug/ml after 10 to 15 mins by spectrophotometric analysis
[6] = system: Aspergillus niger; test: Antifungal activity against Aspergillus niger assessed as zone of inhibition at 25 ug/ml measured after 24 hrs by well diffusion method; details: read-out: IZ
[7] = Antioxidant activity assessed as DPPH free radical scavenging activity at 100 ug/ml after 15 mins by spectrophotometric method
[8] = Antioxidant activity assessed as DPPH free radical scavenging activity at 40 ug/ml after 15 mins by spectrophotometric method
[9] = Antioxidant activity assessed as H2O2 free radical scavenging activity at 100 ug/ml after 10 to 15 mins by spectrophotometric analysis
[10] = system: Aspergillus niger; test: Antifungal activity against Aspergillus niger assessed as zone of inhibition at 100 ug/ml measured after 24 hrs by well diffusion method; details: read-out: IZ
[11] = Antioxidant activity assessed as H2O2 free radical scavenging activity at 20 ug/ml after 10 to 15 mins by spectrophotometric analysis
[12] = Antioxidant activity assessed as H2O2 free radical scavenging activity at 60 ug/ml after 10 to 15 mins by spectrophotometric analysis
[13] = Antioxidant activity assessed as DPPH free radical scavenging activity measured after 15 mins by spectrophotometric method
[14] = Antioxidant activity assessed as H2O2 free radical scavenging activity at 80 ug/ml after 10 to 15 mins by spectrophotometric analysis
[15] = system: Candida albicans; test: Antifungal activity against Candida albicans assessed as zone of inhibition at 50 ug/ml measured after 24 hrs by well diffusion method; details: read-out: IZ
[16] = system: Aspergillus flavus; test: Antifungal activity against Aspergillus flavus assessed as zone of inhibition at 100 ug/ml measured after 24 hrs by well diffusion method; details: read-out: IZ
[17] = system: Candida albicans; test: Antifungal activity against Candida albicans after 24 hrs by well diffusion method
[18] = Antioxidant activity assessed as DPPH free radical scavenging activity at 80 ug/ml after 15 mins by spectrophotometric method
[19] = system: Candida albicans; test: Antifungal activity against Candida albicans assessed as zone of inhibition at 100 ug/ml measured after 24 hrs by well diffusion method; details: read-out: IZ
[20] = system: Aspergillus flavus; test: Antifungal activity against Aspergillus flavus assessed as zone of inhibition at 50 ug/ml measured after 24 hrs by well diffusion method; details: read-out: IZ
[21] = Antioxidant activity assessed as DPPH free radical scavenging activity at 60 ug/ml after 15 mins by spectrophotometric method
[22] = Antioxidant activity assessed as DPPH free radical scavenging activity at 20 ug/ml after 15 mins by spectrophotometric method
[23] = system: Aspergillus flavus; test: Antifungal activity against Aspergillus flavus after 24 hrs by well diffusion method
[24] = system: Aspergillus niger; test: Antifungal activity against Aspergillus niger after 24 hrs by well diffusion method

Row | IC50 [3] [µg/mL] | IC50 [13] [µg/mL] | MIC [17] [µg/mL] | SMILES | zone of inhibition at 25 µg/mL [1] [mm] | zone of inhibition at 25 µg/mL [2] [mm] | zone of inhibition at 50 µg/mL [4] [mm] | inhibition [5] [%] | zone of inhibition at 25 µg/mL [6] [mm] | inhibition [7] [%] | inhibition [8] [%] | inhibition [9] [%] | zone of inhibition at 100 µg/mL [10] [mm] | inhibition [11] [%] | inhibition [12] [%] | inhibition [14] [%] | zone of inhibition at 50 µg/mL [15] [mm] | zone of inhibition at 100 µg/mL [16] [mm] | inhibition [18] [%] | inhibition [21] [%] | inhibition [22] [%] | further results
1 | 40.004 (≈ 110 µM) | 30.791 (≈ 85 µM) | 25 (≈ 69 µM) | Cc1ccc(-c2csc(N/N=C/c3ccc(Cl)cc3Cl)n2)cc1 | 6 | 6 | 6 | 80.4 | 6 | 95.1 | 86.2 | 85.3 | 6 | 76.2 | 83.2 | 84.2 | 6 | 16 | 90.7 | 93.3 | 86 | MIC [23]: 25 µg/mL (≈ 69 µM); zone of inhibition at 100 µg/mL [19]: 8 mm; zone of inhibition at 50 µg/mL [20]: 10 mm
2 | 31.03 (≈ 109 µM) | 26.008 (≈ 91.1 µM) | 12.5 (≈ 43.8 µM) | C(=N\Nc1nc(-c2ccccc2)cs1)/c1cccs1 | 6 | 8 | 8 | 90 | 6 | 96.8 | 95.8 | 94 | 10 | 87.5 | 91 | 92.4 | 10 | 15 | 97.1 | 97.6 | 95.5 | zone of inhibition at 100 µg/mL [19]: 12 mm; zone of inhibition at 50 µg/mL [20]: 12 mm; MIC [24]: 25 µg/mL (≈ 87.6 µM)
3 | 39.58 (≈ 124 µM) | 26.335 (≈ 82.3 µM) | 6.25 (≈ 19.5 µM) | Clc1ccc(-c2csc(N/N=C/c3cccs3)n2)cc1 | 11 | 8 | 6 | 83.2 | 6 | 97 | 96 | 87.1 | 8 | 82.8 | 85.2 | 86 | 14 | 20 | 96.6 | 96.1 | 94.4 | MIC [23]: 12.5 µg/mL (≈ 39.1 µM); zone of inhibition at 100 µg/mL [19]: 18 mm; zone of inhibition at 50 µg/mL [20]: 17 mm
4 | 35.206 (≈ 116 µM) | 44.12 (≈ 145 µM) | 6.25 (≈ 20.6 µM) | Fc1ccc(-c2csc(N/N=C/c3cccs3)n2)cc1 | 12 | 6 | 10 | 87.5 | 6 | 97 | 93.3 | 92.4 | 13 | 84.2 | 90.3 | 91.9 | 14 | 6 | 66.3 | 94.6 | 92.4 | zone of inhibition at 100 µg/mL [19]: 15 mm; zone of inhibition at 50 µg/mL [20]: 6 mm; MIC [24]: 25 µg/mL (≈ 82.4 µM)
5 | 35.933 (≈ 120 µM) | 29.837 (≈ 99.6 µM) | 6.25 (≈ 20.9 µM) | Cc1ccc(-c2csc(N/N=C/c3cccs3)n2)cc1 | 13 | 6 | 6 | 82.8 | 6 | 98.1 | 97 | 91 | 6 | 79.6 | 84.4 | 88.4 | 14 | 6 | 97.8 | 97.6 | 90.9 | zone of inhibition at 100 µg/mL [19]: 15 mm; zone of inhibition at 50 µg/mL [20]: 6 mm

The remaining lines, values behind:

Row | SMILES | IC50 [3] [µg/mL] | IC50 [13] [µg/mL] | MIC [17] [µg/mL] | zone of inhibition at 25 µg/mL [1] [mm] | zone of inhibition at 25 µg/mL [2] [mm] | zone of inhibition at 50 µg/mL [4] [mm] | inhibition [5] [%] | zone of inhibition at 25 µg/mL [6] [mm] | inhibition [7] [%] | inhibition [8] [%] | inhibition [9] [%] | zone of inhibition at 100 µg/mL [10] [mm] | inhibition [11] [%] | inhibition [12] [%] | inhibition [14] [%] | zone of inhibition at 50 µg/mL [15] [mm] | zone of inhibition at 100 µg/mL [16] [mm] | inhibition [18] [%] | inhibition [21] [%] | inhibition [22] [%] | further results
6 | COC(=O)c1cc(-c2csc(N/N=C/c3cccs3)n2)ccc1OCc1ccccc1 | 29.212 (≈ 65 µM) | 28.131 (≈ 62.6 µM) | 25 (≈ 55.6 µM) | 6 | 6 | 6 | 82.8 | 6 | 96.3 | 94.9 | 92.4 | 6 | 79.6 | 84.4 | 87.6 | 8 | 6 | 96 | 95.5 | 94.3 | zone of inhibition at 100 µg/mL [19]: 10 mm; zone of inhibition at 50 µg/mL [20]: 6 mm
7 | Fc1ccc(-c2csc(N/N=C/c3ccc(Cl)cc3Cl)n2)cc1 | 35.539 (≈ 97 µM) | 27.139 (≈ 74.1 µM) | 6.25 (≈ 17.1 µM) | 10 | 8 | 6 | 90 | 6 | 96 | 93.3 | 95.6 | 6 | 88.4 | 92.4 | 94 | 11 | 12 | 95.5 | 94.6 | 90.7 | MIC [23]: 12.5 µg/mL (≈ 34.1 µM); zone of inhibition at 100 µg/mL [19]: 13 mm; zone of inhibition at 50 µg/mL [20]: 10 mm
8 | O=C(O)Cc1ccccc1Nc1c(Cl)cccc1Cl |  |  |  |  |  |  |  |  |  |  |  |  |  |  |  |  |  |  |  | 97.1 | 
9 | COc1ccc(-c2csc(N/N=C/c3ccc(Cl)cc3Cl)n2)cc1 | 40.405 (≈ 107 µM) | 34.966 (≈ 92.4 µM) | 25 (≈ 66.1 µM) | 6 | 6 | 6 | 79.7 | 6 | 93.3 | 69.5 | 87.5 | 6 | 78.1 | 82.8 | 84.2 | 6 | 6 | 90.6 | 86.9 | 65.5 | zone of inhibition at 100 µg/mL [19]: 7 mm; zone of inhibition at 50 µg/mL [20]: 6 mm
10 | O=C1O[C@H]([C@@H](O)CO)C(O)=C1O [ASCORBIC ACID] | 26.771 (≈ 152 µM) | 26.771 (≈ 152 µM) |  |  |  |  | 94.6 |  | 97 | 94.6 | 97 |  | 93.4 | 95.5 | 96 |  |  | 96 | 95.5 | 93.4 | 
11 | COC(=O)c1cc(-c2csc(N/N=C/c3ccc(Cl)cc3Cl)n2)ccc1OCc1ccccc1 | 57.873 (≈ 113 µM) | 88.844 (≈ 173 µM) | 6.25 (≈ 12.2 µM) | 12 | 6 | 6 | 63.5 | 6 | 56.1 | 37.2 | 75 | 6 | 58.9 | 66.3 | 71.8 | 10 | 14 | 45.5 | 41.9 | 19.2 | zone of inhibition at 100 µg/mL [19]: 13 mm; zone of inhibition at 50 µg/mL [20]: 6 mm
